Compared with `COc1cc(C(=O)CCCc2ccccc2)cc([N+](=O)[O-])c1O`, `O=C(O)Cc1cccc(C(=O)c2ccccc2)c1[N+](=O)[O-]` is higher in melting point: 120 to 121 °C for the first, 160 to 162 °C for the second.

First: Nc1c(-c2ccccc2)nn2c1ccc1ccccc12
Second: OC(c1ccccc1)c1ccc(-c2ccccc2)cc1 (centres undefined)
The melting point of the first is higher: 255 to 258 °C for the first, 72 to 73 °C for the second.

First: O=C(O)CC(NS(=O)(=O)c1ccc2ccccc2c1)c1ccccc1O (centres undefined)
Second: CS(=O)(=O)OCCC(c1ccccc1)c1ccccc1
The melting point of the first is higher: 190 to 200 °C for the first, 83 to 85 °C for the second.

First: COC(=O)[C@H](Cc1cccc(O)c1)NC(=O)OC(C)(C)C
Second: CC(C)C[C@H](NC(=O)OCc1ccccc1)C(=O)N[C@H]1CCOC1O (some centres undefined)
The melting point of the first is higher: 61 to 65 °C for the first, 48 to 49 °C for the second.

First: Cc1cc(C(=O)CBr)cn1S(=O)(=O)c1ccccc1
Second: O=C(O)C(=O)CC(=O)c1cccn1Cc1ccccc1Br
The melting point of the first is lower: 86 to 88 °C for the first, 176 to 180 °C for the second.

Compared with `NNc1nncc(-c2cccc(Cl)c2)n1`, `Clc1cccc(CNc2n[nH]c3ncnc(Nc4cccc(Cl)c4)c23)c1` is lower in melting point: 163 to 166 °C for the first, 158 to 163 °C for the second.

First: CCOC(=O)C1(Cl)C(=O)N2CCOc3cc(Cl)cc1c32 (centres undefined)
Second: CCOC(=O)c1c(N)c2cccnc2n(C2CCCCC2)c1=O
The melting point of the first is lower: 147 to 148 °C for the first, 172 to 175 °C for the second.

Compared with `CCCCC(=O)Nc1c(C(=O)c2ccccc2)[nH]c2cc(Cl)ccc12`, `CN1CCN(C(=O)CCC(=O)c2ccc3[nH]c4nc(Cl)ccc4c3c2)CC1` is higher in melting point: 140 to 143 °C for the first, 236 °C for the second.

First: Cc1c(C=NO)c2cc(Br)ccc2n1-c1ccc(O)cc1
Second: Nc1ccc(-c2cc(=O)c(C(=O)O)cn2-c2ccc(F)cc2)cc1
The melting point of the first is lower: 209 to 211 °C for the first, 262 to 266 °C for the second.

Compared with `N#Cc1cccnc1N1CCc2ccccc2CC1`, `NC(=O)C1CCCc2ccc(-c3ccccc3)nc21` (centres undefined) is higher in melting point: 110 to 112 °C for the first, 145 °C for the second.

First: Oc1cccc([C@H]2CCCC[C@H]2N2CCCC2)c1 (relative stereo)
Second: CC(C)(C)OC(=O)N1CCCCC1c1c[nH]c2ncccc12 (centres undefined)
The melting point of the first is lower: 124 to 126 °C for the first, 144 to 145 °C for the second.

First: CCCCCS(=O)(=O)NC(=O)CCc1ccc(OCCOCCOC)cc1Oc1ncc(C(F)(F)F)cc1Cl
Second: Cn1c(=O)[nH]c(=O)n(-c2cc(Oc3ncc(C(F)(F)F)cc3Cl)ccc2Br)c1=O
The melting point of the first is lower: 76 to 77.5 °C for the first, 97 to 110 °C for the second.

Compared with `CCCNc1nc(C#N)c(C#N)nc1-c1ccccc1`, `CCc1cc2c(NCc3ccc4c(c3)OCO4)nc(Cl)nc2s1` is higher in melting point: 136 to 137 °C for the first, 148 °C for the second.

First: CCCCc1oc2ccc(C#N)cc2c1C(=O)c1ccc(OCCCN(CCCC)CCCC)cc1
Second: CCCCCCCCCCCC(=O)Oc1ccc2cc(C(=N)N)ccc2c1
The melting point of the first is lower: 85 to 87 °C for the first, 149 to 151 °C for the second.

First: O=C1OC(CO)CN1c1ccc(N2CC3CSCC3C2)c(F)c1 (centres undefined)
Second: CC(C)(C)OC(=O)N1CC2CN(Cc3ccccc3)CC(C1)O2
The melting point of the first is higher: 165 to 167 °C for the first, 100 to 102 °C for the second.

First: CN(C)CCCN(C)C(=O)c1cc([N+](=O)[O-])c[nH]1
Second: CN(C)c1ccc2nnc(-c3ncc([N+](=O)[O-])n3C)n2n1
The melting point of the first is lower: 118 to 120 °C for the first, 233 to 236 °C for the second.

Compared with `NC(=O)c1ncc(Cl)cc1F`, `Cc1c(CO)oc2ccc(Cl)cc12` is lower in melting point: 162 to 164 °C for the first, 112 to 113 °C for the second.

First: Cc1ccccc1NC(=O)CN1CC2CCC(C1)N2S(=O)(=O)c1cccc2nsnc12
Second: CS(=O)(=O)c1ccc(C2=C(c3ccccc3)CN(C3CCCCC3)C2=O)cc1
The melting point of the first is lower: 169 to 170 °C for the first, 183 to 185 °C for the second.

First: Nc1cc(Br)cc(OCCF)c1
Second: COc1cc(Nc2cc(C(=O)NN)ccn2)cc(C(F)(F)F)c1
The melting point of the first is lower: 48.5 to 50 °C for the first, 229 to 230 °C for the second.

First: Cc1cc(C)cc(Sc2c(C)c[nH]c(=O)c2NC=O)c1
Second: Cc1cc2c(cc1C)C(=O)C(Br)=C(N)C2=O
The melting point of the first is lower: 221 to 222 °C for the first, 228 °C for the second.

First: O=C(O)c1ccc(N(CCn2ccnc2)c2ccc(F)cc2)cc1-c1ccc(F)cc1
Second: N[C@@H](Cc1ccccc1)C(=O)N(C(=O)Cc1cc(F)cc(F)c1)[C@@H]1C(=O)Nc2ccccc2S[C@@H]1c1ccccc1
The melting point of the first is higher: 195 to 200 °C for the first, 115 to 120 °C for the second.

Compared with `CCOCc1nc2c(N)nc3ccccc3c2n1CCCCCC(=O)N1CCOCC1`, `COc1cc(C(=O)Cn2c(-c3nonc3N)nc3ccccc32)ccc1O` is higher in melting point: 160 to 162 °C for the first, 265 °C for the second.

First: Cc1cc(C)n(-c2ccc(OC=C3C=CC=CC3n3nnn(C)c3=O)c(Cl)c2)n1 (centres undefined)
Second: COc1cc(N2CCN(C[C@H](C)O)CC2)ccc1Nc1ncc2ccc(-c3cc(Cl)ccc3OC)n2n1
The melting point of the first is lower: 122 to 124 °C for the first, 163 to 166 °C for the second.

First: CC1(c2ccc(S(=O)(=O)Cl)cc2)Cc2cc(OCC(=O)O)c(Cl)c(Cl)c2C1=O (centres undefined)
Second: CNC(=O)CC1CN=C(c2cc3cc(Oc4ccc(S(C)(=O)=O)nc4)cc(OC)c3[nH]2)S1 (centres undefined)
The melting point of the first is higher: 209 to 210 °C for the first, 201 to 202 °C for the second.

Compared with `NCCNCC(O)COc1ccccc1C(N)=O` (centres undefined), `CC(=O)c1cc(-c2ccncc2)sc1Oc1ccccc1F` is higher in melting point: 91 to 93 °C for the first, 93 to 96 °C for the second.

First: COc1cc(OCCSC)ccc1-c1nc2ncccc2[nH]1
Second: COc1ccc(-c2c3c(cc4ccc5c(c24)OCO5)C(=O)NCC3)cc1
The melting point of the first is lower: 197 to 199 °C for the first, 245 to 247 °C for the second.

Compared with `CCCc1nc(Br)c(C(C)(O)C(=O)O)n1Cc1ccc(-c2ccccc2S(=O)(=O)NC(=O)NCc2ccccc2)cc1` (centres undefined), `CNCCc1ccc(-c2ccc(OC(C)C(O)CCc3cccnc3)cc2)cc1` (centres undefined) is lower in melting point: 153 °C for the first, 113 to 114 °C for the second.

First: COc1cc2ncnc(N3CCc4cc([N+](=O)[O-])c(Cl)cc43)c2cc1OC
Second: COc1cc(-c2oc3ccccc3c(=O)c2OCC(O)CN2CCN(c3ccccc3)CC2)cc(OC)c1OC (centres undefined)
The melting point of the first is higher: 276 to 278 °C for the first, 170 to 171 °C for the second.

First: CC(=O)CCCCCCC(CC(C)C(O)C(N)CO)c1cccs1 (centres undefined)
Second: OCCc1coc2c(O)cccc12
The melting point of the first is lower: 96 to 99 °C for the first, 116 to 117 °C for the second.

First: CSc1nn2c(N)ncnc2c1S(=O)(=O)c1ccccc1
Second: NS(=O)(=O)c1ccccc1S
The melting point of the first is higher: greater than 280 °C for the first, 113 to 140 °C for the second.

First: CC1CC(=O)N(CCCCN2CCN(c3ncccn3)CC2)S(=O)(=O)N1 (centres undefined)
Second: CSCC1Cn2cc(C(=O)NCc3ccc(Cl)cc3)c(=O)c3cc(CN4CCOCC4)cc(c32)O1 (centres undefined)
The melting point of the first is lower: 115 to 117 °C for the first, 190 to 191 °C for the second.

First: CC1CNCCC1n1c(=O)[nH]c2cc(Cl)ccc21 (centres undefined)
Second: Cn1nc(-c2ccncc2)c(-c2ccc(Cl)cc2)c1N
The melting point of the first is lower: 199 °C for the first, 257 to 258 °C for the second.

First: CN(C)c1nc(Cl)nc(Cl)n1
Second: OCc1csc(Nc2ccc(Br)cn2)n1
The melting point of the first is lower: 123 to 124 °C for the first, 207 to 209 °C for the second.

First: CNc1ccc2cc(Br)ccc2c1[N+](=O)[O-]
Second: NC(c1ccccc1)c1nc2ccccc2s1 (centres undefined)
The melting point of the first is higher: 169 to 170 °C for the first, 68 to 70 °C for the second.

First: CN(Cc1cc(C(F)(F)F)cc(C(F)(F)F)c1)C(=O)c1nc(N)ncc1-c1ccccc1
Second: Fc1ccc2[nH]cc(C3=CCN(CC4COc5ccc6ncccc6c5O4)CC3)c2c1 (centres undefined)
The melting point of the first is lower: 182 °C for the first, 184 °C for the second.

First: CNC(=O)C1(N2C(=O)c3cccc(NC(C)=O)c3C2=O)CCCCC1
Second: O=CNc1ccc(-c2ccc(C(=O)N3CCN4CCC3CC4)o2)cc1
The melting point of the first is lower: 205 to 208 °C for the first, 236 °C for the second.

First: O=C1N[C@H](C(=O)NCCO)CS1
Second: NC(=CC(=O)c1ccncc1)C1CC1
The melting point of the first is lower: 116 to 118 °C for the first, 124 to 125 °C for the second.

— a melting point compilation (Tetko et al.; mined from patent text by program, amines drawn as free bases though some values may be those of a salt)
